Results from PubChem BioAssay (NCI).
“And” between values parts separate entries of the source, which are not always exact repeats. Equal entries are not always repeated.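 Grown in 96-well plates, cells were treated for 48 hours with each compound at five concentrations. Insufficient inhibition: endpoint recorded as highest concentration tested. The concentration for full growth arrest is given as TGI.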

How the values were obtained:
Test in all cases: DTP human tumour cell line panel, 48 h
XF 498 CNS = system: XF 498 CNS
KM20L2 colon = system: KM20L2 colon
M14 melanoma = system: M14 melanoma
M19-MEL melanoma = system: M19-MEL melanoma
DLD-1 colon = system: DLD-1 colon
HCT-116 colon = system: HCT-116 colon
DMS 273 small cell lung = system: DMS 273 small cell lung
NCI-H226 lung = system: NCI-H226 lung
TK-10 renal = system: TK-10 renal
SNB-19 CNS = system: SNB-19 CNS
LOX IMVI melanoma = system: LOX IMVI melanoma
LXFL 529 NSCLC = system: LXFL 529 NSCLC
KM12 colon = system: KM12 colon
OVCAR-4 ovarian = system: OVCAR-4 ovarian
SNB-78 CNS = system: SNB-78 CNS
DMS 114 small cell lung = system: DMS 114 small cell lung
HOP-18 NSCLC = system: HOP-18 NSCLC

| SMILES | TGI (XF 498 CNS) [µM] | TGI (KM20L2 colon) [µM] | TGI (M14 melanoma) | TGI (M19-MEL melanoma) [µM] | TGI (DLD-1 colon) [µM] | TGI (HCT-116 colon) | TGI (DMS 273 small cell lung) [µM] | TGI (NCI-H226 lung) | TGI (TK-10 renal) | TGI (SNB-19 CNS) | TGI (LOX IMVI melanoma) | TGI (LXFL 529 NSCLC) [µM] | TGI (KM12 colon) | TGI (OVCAR-4 ovarian) | TGI (SNB-78 CNS) [µM] | TGI (DMS 114 small cell lung) [µM] | TGI (HOP-18 NSCLC) [µM] |
| --- | --- | --- | --- | --- | --- | --- | --- | --- | --- | --- | --- | --- | --- | --- | --- | --- | --- |
| COC1=CCC=C(C[C@@H]2NCCc3cc(OC)c(OC)cc32)C1 | > 100 | > 100 | > 100 µM | > 100 | > 100 | > 100 µM | > 100 | > 100 µM | > 100 µM | > 100 µM | > 100 µM | > 100 | > 100 µM | > 100 µM | > 100 |  |  |
| CC(=O)NC1=C(NCCN(C)C)C(=O)c2ccccc2C1=O | 35.1 | > 50 | > 50 µM | 14.3 | > 50 | 18.6 µM | 27.6 | > 50 µM | > 50 µM | > 50 µM | > 50 µM | > 50 | > 50 µM | 17.7 µM | > 50 |  |  |
| CC(C)(C)OC(=O)NCCc1cccc2c1oc1c(CCC(=O)O)cccc12 | > 100 | > 100 | > 100 µM | > 100 | > 100 | > 100 µM | > 100 | > 100 µM | > 100 µM | > 100 µM | > 100 µM | > 100 | > 100 µM | > 100 µM | > 100 | > 100 | > 100 |
| COC1C=COC2(C)Oc3c(C)c(O)c4c(O)c(c(/C=N/N5CCN(N)CC5)c(O)c4c3C2=O)NC(=O)C(C)=CC=CC(C)C(O)C(C)C(O)C(C)C(OC(C)=O)C1C (configuration not stated) |  | > 100 | > 100 µM | > 100 | > 100 | 80.7 µM | > 100 | > 100 µM | > 100 µM | > 100 µM | > 100 µM | > 100 | > 100 µM | > 100 µM | > 100 | > 100 |  |
| CC1(C)C(O)C[C@@H](O)[C@@]2(C)C1CC[C@]1(C)C2C[C@@H](O)[C@@H]2C([C@@]3(C)CC[C@@H](C(C)(C)O)O3)CCC21C (some centres not stated) | 33.7 | 31.2 | 27.7 µM |  | 31.5 | 30.9 µM | 27.7 | 34.7 µM | > 62.1 µM | 30.4 µM | 23.2 µM | 22.4 | 30.6 µM | 37.9 µM | 43.8 | 29.1 | 31.1 |
| CC(SC(=S)N1CCOCC1)C(=O)Nc1nnc(-c2ccccc2)o1 (configuration not stated) |  |  | > 100 µM |  |  | > 100 µM |  | > 100 µM | > 100 µM | > 100 µM | > 100 µM |  | > 100 µM | > 100 µM |  |  |  |
| O=C(c1ccccc1)c1ccc(-n2c3ccccc3c3ccc4c(c32)C(=O)C=CC4=O)cc1 |  |  | 23.6 µM |  |  | 16.3 µM |  | 53.8 µM | 25.3 µM | 36.4 µM | 16.3 µM |  | 37.5 µM | 31.8 µM |  |  |  |
| COC(=O)C1OC(O[C@H]2CC[C@]3(C)[C@H]4CC=C5[C@@H]6CC(C)(C)CC[C@]6(C(=O)OC6OCC(O)C(O)C6OC6OC(C)C(OC7OCC(O)C(OC8OCC(O)C(O)C8O)C7O)C(OC7OCC(O)C(O)C7O)C6O)CC[C@@]5(C)[C@]4(C)CC[C@H]3C2(C)C)C(O)C(OC2OCC(O)C(O)C2O)C1O (some centres not stated) |  |  | 3.7 µM and 5.19 µM |  |  | > 100 µM and 23.3 µM |  | 11 µM and 17.8 µM | 70.4 µM and 24.4 µM | > 100 µM and 20.1 µM | 26.5 µM and 21.6 µM |  | 10.7 µM and 10.8 µM | > 100 µM and 20.2 µM |  |  |  |
| CCN(CC)c1ccc2cc(C(=O)Nc3ccccc3)c(=N)oc2c1 |  |  | > 100 µM |  |  | > 100 µM |  | > 100 µM | > 100 µM | > 100 µM | > 100 µM |  | > 100 µM | > 100 µM |  |  |  |
| CCc1c(Cc2[nH]c(Cc3[nH]c(C=O)c(C)c3CC)c(CC)c2CC)[nH]c(C=O)c1C | > 100 | > 100 | > 100 µM | > 100 | > 100 | > 100 µM | > 100 | > 100 µM | > 100 µM | > 100 µM | > 100 µM | > 100 |  | > 1 µM | > 100 | > 100 | > 100 |
| NCCN1C(=O)CN=C(c2ccc(Cl)cc2)c2cc(Cl)ccc21 |  |  | 30.3 µM |  |  | 30.1 µM |  | 31 µM | 30.5 µM | 45.6 µM | 32.4 µM |  | 31.3 µM | 32.1 µM |  |  |  |
| [O-][n+]1ccccc1S |  |  | > 100 µM |  |  | 4.5 µM |  | > 100 µM | 4.71 µM | > 100 µM | > 100 µM |  | 20.3 µM | 4.4 µM |  |  |  |
| C=C(C)[C@H]1C=C[C@@H](OC(=O)c2cccnc2)[C@@]23CO[C@@](C)([C@H](OC(=O)c4cccnc4)[C@@]4(OC(C)=O)C[C@H](C)[C@H](OCCC)[C@@H]4[C@H]2OC(C)=O)[C@H]13 |  |  | > 15 µM |  |  | > 15 µM |  | > 15 µM | > 15 µM | > 15 µM | > 15 µM |  | > 15 µM | > 15 µM |  |  |  |
| CN(C)P(=O)(Oc1ccc(CC(NC(=O)OCc2ccccc2)C(=O)OCc2ccccc2)cc1)N(C)C (configuration not stated) |  |  | 32 µM |  |  | 31.3 µM |  | 52.8 µM | 47 µM | 38.6 µM | 34.5 µM |  | 40.3 µM | 39.1 µM |  |  |  |
| CC(C)(C)Nc1noc(=O)n1C(C)(C)C |  |  | > 100 µM |  |  | > 100 µM |  | > 100 µM | > 100 µM | > 100 µM | > 100 µM |  | > 100 µM | > 100 µM |  |  |  |
| O=C(CSc1nc2[nH]ncc2c(=O)[nH]1)c1ccc(Cl)cc1 |  |  | > 100 µM |  |  | > 100 µM |  | > 100 µM | > 100 µM | > 100 µM | > 100 µM |  | > 100 µM | > 100 µM |  |  |  |
| O=C1NC(=O)C2(CCCCCC2)N1 |  |  | > 100 µM |  |  | > 100 µM |  | > 100 µM | > 100 µM | > 100 µM | > 100 µM |  | > 100 µM | > 100 µM |  |  |  |
| CCCCCCOc1ccc(C(=O)NO)cc1 |  |  | 34 µM |  |  | 21.5 µM |  | 32.6 µM | > 100 µM | 54.8 µM | 20.7 µM |  | 27.6 µM | > 66.3 µM |  |  |  |
| Oc1ccc(N=C2CCC(=C(c3ccccc3)c3ccc(Nc4ccc(O)cc4)cc3)CC2)cc1 |  |  | > 100 µM |  |  | > 100 µM |  | > 100 µM | > 100 µM | > 100 µM | > 100 µM |  | > 100 µM | > 100 µM |  |  |  |
| CCCCC(Sc1cc(Cl)c(C)cc1S(=O)(=O)Nc1n[nH]c(N)n1)C(=O)OC (configuration not stated) |  |  | > 10 µM |  |  | > 10 µM |  | > 10 µM | > 10 µM | > 10 µM | > 10 µM |  | > 10 µM | > 10 µM |  |  |  |
| CCN1C(=O)C(C)S/C1=N\NC(=O)CSc1nc2ccccc2c(=O)n1CC (configuration not stated) |  |  | > 100 µM |  |  | > 100 µM |  | > 100 µM | > 100 µM | > 100 µM | > 100 µM |  | > 100 µM | > 100 µM |  |  |  |
| CC1=CC[C@@]2(CO)[C@@H]([C@@H]1C)[C@H]1CC[C@@H]3[C@@]4(C)CC[C@H](O)C(C)(C)[C@@H]4CC[C@@]3(C)[C@]1(C)C[C@@H]2O |  |  | > 100 µM |  |  | > 100 µM |  | 81.4 µM | 44.4 µM | > 100 µM | 45.2 µM |  | > 100 µM | > 100 µM |  |  |  |
| Cc1nc2c(=O)n(-c3ccccc3)c3ccccc3c2o1 |  |  | > 100 µM |  |  | > 100 µM |  | > 100 µM | > 100 µM | > 100 µM | > 100 µM |  | > 100 µM | > 100 µM |  |  |  |
| CC(=O)OC1CCCn2c1nc1c2C(=O)C(C)=C(N2CC2)C1=O (configuration not stated) | 0.685 | 1.2 | 0.337 µM | 1.63 | 10.9 | 1.96 µM | 0.552 | 0.944 µM | 7.28 µM | 1.38 µM | 1.01 µM | 1.66 | 1.24 µM | 2.35 µM | 2.88 | 2.38 | 1.11 |
| COC(=O)c1c(O)ccc2c1c1c(n2Cc2ccc(Cl)cc2Cl)C(=O)c2ccccc2C1=O |  |  | 29 µM |  |  | 13.1 µM |  | 24.8 µM | 29 µM | 30.6 µM | 33.3 µM |  | 15.9 µM | 11.6 µM |  |  |  |
| C=CCSC1=N/C(=C\c2cccs2)C(=O)N1CC=C |  |  | > 100 µM |  |  | > 100 µM |  | > 100 µM | > 100 µM | > 100 µM | > 100 µM |  | > 100 µM | > 100 µM |  |  |  |
| CC(=O)CSc1c(-c2ccccc2)c(=O)n(-c2ccccc2)c(=S)n1-c1ccccc1 |  |  | > 100 µM |  |  | > 100 µM |  | > 100 µM | > 100 µM | > 100 µM | > 100 µM |  | > 100 µM | > 100 µM |  |  |  |
| CC1CC[C@@]2(OC1)OC1CC3C4CCC5C[C@@H](OC6OC(CO)C(OC7OC(CO)C(O)C(OC8OC(CO)C(O)C(OC9OC(CO)C(O)C(O)C9O)C8O)C7OC7OC(CO)C(O)C(O)C7O)C(O)C6O)[C@H](O)C[C@]5(C)C4CC[C@]3(C)C1[C@@H]2C (some centres not stated) |  |  | > 80.5 µM |  |  | > 80.5 µM |  | > 80.5 µM | > 80.5 µM | > 80.5 µM | > 80.5 µM |  | > 80.5 µM | > 80.5 µM |  |  |  |
| Nc1cc(N2CCCC2)nc(=O)n1-c1ccccc1 |  |  | > 100 µM |  |  | > 100 µM |  | > 100 µM | > 100 µM | > 100 µM | > 100 µM |  | > 100 µM | > 100 µM |  |  |  |
